Data published in patent US10723744B2, “Transplantation therapies” (Aphios Corporation, priority 2007, dated 2020).
Entries after “also recorded” stand apart in the source; their conditions may differ. Where two headings read alike, the source gives them in different places.

Assays:
T84 intestinal epithelia = conditions: cited from earlier work
[1] = cited from earlier work
HUVEC = assay: Alamar blue endothelial viability assay, HUVEC; type: cell-based, human
Method: (§1) The Alamar blue assay was used to determine endothelial viability after pharmacological intervention. Alamar blue contains a REDOX indicator that results in a color change upon chemical reduction by cellular metabolic activity. Endothelial cells were treated with Bryostatin-1 (100 nM) for 1 h and washed three times with HBSS. Alamar blue (10%) in media was added for 2.5 h at T=0, 24, or 48 hours after drug treatment and the ratio of absorbances (570-600 nm) was measured to determine metabolic activity.

HMECs [2] = assay: Time course of protection against LTB4 induced PMN TEM after 1 h pretreatment, HMECs; type: cell-based, human; conditions: for time after pretreatment up to which LTB4 induced migration is reduced: 100 nM, 1 h pretreatment, washed, tested at 0, 24, 48 hours; for time after pretreatment for which reduction in LTB4 induced migration is maintained: single 1 h 100 nM pretreatment
Method: FIG. 6 graphically depicts protection against LTB4 induced PMN TEM with PMA up to 48 h after pretreatment. HMECs were pretreated for 1 h with PMA and washed with HBSS three times to remove PMA prior to replacement of culture medium. Neutrophil migration studies were then performed at 0, 24, or 48 hours. Migration was stimulated by adding 500,000 neutrophils to the top well and 100 nM LTB4 to the lower well at 0, 24, and 48 hours after PMA pretreatment. […] PMA (100 nM, (10^−7M) reduced LTB4 induced migration up to 48 hours after 1 h of endothelial-specific pretreatment (***p<0.001).
Referring now to FIG. 7, FIG. 7 graphically depicts protection from LTB4 induced PMN TEM with Bryostatin-1 up to 48 hours after pretreatment. HMECs were pretreated for 1 h with Bryostatin-1 and washed with HBSS three times to remove Bryostatin-1 prior to replacement of culture medium. Neutrophil migration studies were then performed at 0, 24, or 48 hours. Migration was stimulated by adding 500,000 neutrophils to the top well and 100 nM LTB4 to the lower well at 0, 24, and 48 hours after Bryostatin-1 pretreatment. […] Bryostatin-1 (100 nM) reduced LTB4 induced migration up to 48 hours after 1 hour endothelial pretreatment (***p<0.001).
(§2) At confluency, HUVECs were treated for 1 h at 37° C. with Bryostatin-1 (10 nM, 100 nM) in EGM or EGM alone. Inserts were washed three times with HBSS (to reduce drug effects on the neutrophils) and migration assays were ran at t=0, 24, or 48 h. After time elapsed, HUVECs were placed in a new plate containing either 500 μL 100 nM LTB4 or HBSS alone for control. 500 μL HBSS was then added to the top well and spiked with 500,000 neutrophils. Neutrophils were allowed to migrate for 3 h at 37° C. Migration was stopped by removing the inserts and migration was measured using the MPO assay.
(§3) Neutrophil migration was measured using myeloperoxidase (MPO) analysis. Cell culture inserts were first removed and plates were spun at 1,500 RPM for 5 min. The supernatant was removed, and MPO activity was measured using TMB/peroxide as chromogen. The reaction was stopped with sulfuric acid and absorbance was read at 450 nm using a microplate reader. All experiments were performed n=6. Data was expressed as “% neutrophil migration”, which allowed cumulative statistical analysis to be done and account for unpreventable batch-to-batch variations.

HMEC = assay: Alamar blue endothelial viability assay, HMEC; type: cell-based, human; conditions: single 1 h 100 nM treatment; time points 1, 24, 48 h
Method: as §1

HMECs [3] = assay: LTB4 induced neutrophil migration across HMEC monolayers (transwell, MPO assay); type: cell-based, human; conditions: 100 nM LTB4; for LTB4 induced neutrophil migration: HMECs on transwells, 1 h pretreatment 100 nM or 10 nM (PMA: 100, 10 or 1 nM), 3 h; for LTB4 induced neutrophil migration (PMN TEM) / LTB4 induced neutrophil TEM: HMECs; for LTB4 induced neutrophil migration (PMN TEM): 1 h pretreatment at 1 nM; for LTB4 induced neutrophil TEM: 1 h pretreatment, higher doses (100 nM)
Method: (§4) At confluency HMECs were treated for 1 h at 37° C. with Bryostatin-1 (10 nM, 100 nM) in MCDB-131 media or MCDB-131 media alone. Inserts were washed three times with Hank's Balanced Salt Solution (HBSS) (to eliminate drug effects on the neutrophils) and placed in a new plate containing either 500 μL 100 nM LTB4, or HBSS alone for control. 500 μL HBSS was then added to the top well and spiked with 500,000 neutrophils. For TNF-α experiments, HMECs were left in 20 ng/ml TNF-α in MCDB-131 for 24 h TNF-α was removed and HMECs washed three times. HMECs were treated for 1 h with Bryostatin-1 in endothelial growth medium (EGM) (10 nM, 100 nM). The drug was removed and cells were washed three times. 500 μL HBSS was added to both upper and lower chambers and spiked with 500,000 neutrophils. Neutrophils were allowed to migrate for 3 h at 37° C. Migration was stopped by removing the inserts and migration was measured using the myeloperoxidase (MPO) assay.
as §3
(§5) Confluent HMEC monolayers were plated on 48-well plates for adhesion studies, transwells for migration studies, and pretreated with a variety of pharmacological inhibitors and activators for 1 hour. Monolayers were washed three times with HBSS to remove all drug effects on the endothelium. To initiate migration, 100 nM LTB4 was added to the lower compartment and 500,000 neutrophils were added to the upper compartment and allowed to migrate for 3 h. For adhesion assays, LTB4 was added along with 500,000 neutrophils and allowed to adhere for 1 h (time of max. adhesion as determined in FIG. 1). […] The data are shown as % change in migration and adhesion as assessed by MPO assay. All values are expressed as means±SE. Data were analyzed using a one-way ANOVA with Bonferroni corrections for multiple comparisons. Probability (p) values of <0.05 were considered significant. ***p<0.001 vs. LTB4; **p<0.01 vs. LTB4; **p<0.05 vs. LTB4; n=4 for all experiments.

HUVECs [4] = assay: Time course of protection against LTB4 induced PMN TEM after 1 h pretreatment, HUVECs; type: cell-based, human; conditions: single 1 h 100 nM pretreatment
Method: as §2, §3

[5] = system: PKC-δ siRNA nucleofected HUVEC; assay: LTB4 induced neutrophil migration across PKC-δ siRNA nucleofected HUVEC; type: cell-based, human; conditions: 100 nM, 1 hour
Method: (§6) HUVECs were pretreated with Go-6983 (1, 10, 100 nM), or Go-6976 (1, 10, 100 nM) for 30 minutes, then spiked with 100 nM Bryostatin-1 for 1 hour. HUVECs previously nucleofected with PKC-δ, -ε, or control siRNA were just treated in Bryostatin-1 for 1 hour. HUVECs were washed three times and placed in a new plate containing either 500 μL 100 nM LTB4, or HBSS alone for control. Neutrophils were allowed to migrate for 3 h at 37° C. Migration was stopped by removing the inserts and migration was measured using the MPO assay.
as §3
(§7) Optimum nucleofection parameters were determined using nucleofection of a control vector pmaxGFP. Using fluorescence microscopy and flow cytometry, 2 μg vector/500,000 cells nucleofected yielded the highest nucleofection (data not shown). HUVECs were grown to 70% confluency, trypsinized, and then counted. […]

HMEC monolayers = assay: LTB4 induced neutrophil adhesion to the endothelial monolayer; type: cell-based, human; conditions: data not shown
Method: as §5

[6] = system: PKC-ε siRNA nucleofected HUVEC; assay: LTB4 induced neutrophil migration across PKC-ε siRNA nucleofected HUVEC; type: cell-based, human; conditions: 1 hour pretreatment
Method: as §6, §3, §7

HUVECs [7] = assay: Neutrophil TEM restoration studies with PKC inhibitors; type: cell-based, human; conditions: HUVEC; for restoration of PMN TEM in response to LTB4 by PKC inhibitors (reversal of Bryostatin-1 protection): inhibitor pretreatment (Go-6983, Go-6976: 1, 10, 100 nM), then 100 nM Bryostatin-1
Method: as §6, §3

HMECs [8] = type: cell-based, human; conditions: for TNF-α induced neutrophil TEM (Type II migration): HMECs, 24 h TNF-α 10 or 20 ng/ml, 1 hour pretreatment with 100 nM
Method: as §4, §3

[9] = system: endothelial and epithelial cells; conditions: several types of endothelial and epithelial cells; cited from earlier work
endothelial cells = conditions: greater effect seen with PKC-α inhibition; cited from earlier work
[10] = single 1 h 100 nM treatment, time points 1, 24, 48 h (PMA: except 48 h)

CCC/C=C/C=C/C(=O)O[C@H]1/C(=C/C(=O)OC)C[C@H]2C[C@H]([C@@H](C)O)OC(=O)C[C@H](O)C[C@@H]3C[C@H](OC(C)=O)C(C)(C)[C@](O)(C[C@@H]4C/C(=C/C(=O)OC)C[C@H](/C=C/C(C)(C)[C@]1(O)O2)O4)O3 [Bryostatin-1]
barrier function (T84 intestinal epithelia): enhances barrier function
barrier loss induced by TNF-α (T84 intestinal epithelia): inhibits barrier loss
cardiovascular disturbances or edema ([1]; Phase II cancer trials): no cardiovascular disturbances or evidence of edema have been observed
major side effects associated with use ([1]; Phase II cancer trials): myalgias, nausea, and vomiting
adverse effects ([1]; healthy subjects and cancer patients, dosing ranges higher than for 100 ng/ml plasma level): no adverse effects
HUVEC viability (HUVEC; [10]): no effect
time after pretreatment up to which LTB4 induced migration is reduced (HMECs [2]): up to 48 hours
time after pretreatment for which reduction in LTB4 induced migration is maintained (HMECs [2]): at least 48 h
time after pretreatment for which reduction in LTB4 induced migration is maintained (HMECs [2]; listed as Bryostatin): 48 h
HMEC viability (HMEC): no effect
LTB4 induced neutrophil migration (HMECs [3]): reduced LTB4 induced migration in a dose dependent manner
LTB4 induced neutrophil migration (PMN TEM) (HMECs [3]): did not reduce PMN TEM
LTB4 induced neutrophil TEM (HMECs [3]): attenuated neutrophil TEM to levels below that of basal migration
time after pretreatment for which reduction in LTB4 induced migration is maintained (HUVECs [4]): 48 h
LTB4 induced neutrophil migration after pretreatment, PKC-δ knocked down [5]: restored the normal level of neutrophil trans endothelial migration
LTB4 induced adhesion to the endothelial monolayer (HMEC monolayers): Neither PMA, nor Bryostatin-1 reduced LTB4 induced adhesion
LTB4 induced neutrophil migration after pretreatment, PKC-ε knocked down [6]: did not restore LTB4 induced migration; also recorded: still suppresses migration
LTB4 induced neutrophil migration (HUVECs [7]; 100 nM Bryostatin-1, 1 hour, 100 nM LTB4, 3 h): reversed; also recorded: significantly suppressed LTB4 induced migration
migration induced by a combination of TNF-α pretreatment and LTB4 gradient (HMECs [8]; 24 h TNF-α pretreatment and 100 nM LTB4 gradient, data not shown): reduced migration
TNF-α induced neutrophil TEM (Type II migration) (HMECs [8]): attenuated Type II migration; also recorded: totally attenuated

CN(C)CCCn1cc(C2=C(c3c[nH]c4ccccc34)C(=O)NC2=O)c2ccccc21 [GF10923X]
restoration of PMN TEM in response to LTB4 by PKC inhibitors (reversal of Bryostatin-1 protection) (HUVECs [7]): did not restore PMN TEM

Cn1c2ccccc2c2c3c(c4c5ccccc5n(CCC#N)c4c21)CNC3=O [GO-6976]
restoration of PMN TEM in response to LTB4 by PKC inhibitors (reversal of Bryostatin-1 protection) (HUVECs [7]): did not restore PMN TEM

COc1ccc2c(c1)c(C1=C(c3c[nH]c4ccccc34)C(=O)NC1=O)cn2CCCN(C)C [Go-6983]
Bryostatin-1 mediated reduction in migration towards LTB4, effect of PKC inhibitor pretreatment (HUVECs [7]; inhibitor 10 or 100 nM, 30 minutes before 100 nM Bryostatin-1): prevented
restoration of PMN TEM in response to LTB4 by PKC inhibitors (reversal of Bryostatin-1 protection) (HUVECs [7]): dose dependently restored neutrophil migration
restoration of PMN TEM in response to LTB4 by PKC inhibitors (reversal of Bryostatin-1 protection) (HUVECs [7]; listed as G0-6983): dose dependently reversed

CCCCCCCCCCCCCC(=O)O[C@@H]1[C@@H](C)[C@@]2(O)[C@@H](C=C(CO)C[C@]3(O)C(=O)C(C)=C[C@@H]23)[C@@H]2C(C)(C)[C@]12OC(C)=O [PMA, phorbol myristate acetate]
trans endothelial resistance (TER) [9]: decrease trans endothelial resistance (TER)
HUVEC viability (HUVEC; 48 h after a single 1 h treatment with 100 nM): slight but significant reduction in viability
HUVEC viability (HUVEC; [10]): no effect
time after pretreatment up to which LTB4 induced migration is reduced (HMECs [2]): up to 48 hours
HMEC viability (HMEC): no effect
LTB4 induced neutrophil migration (HMECs [3]): reduced LTB4 induced migration in a dose dependent manner
LTB4 induced neutrophil migration (PMN TEM) (HMECs [3]): did not reduce PMN TEM; also recorded: had no effect on LTB4 induced migration
LTB4 induced neutrophil TEM (HMECs [3]): attenuated neutrophil TEM to levels below that of basal migration
time after pretreatment for which reduction in LTB4 induced migration is maintained (HUVECs [4]): up to 48 h
LTB4 induced adhesion to the endothelial monolayer (HMEC monolayers): Neither PMA, nor Bryostatin-1 reduced LTB4 induced adhesion
LTB4 induced neutrophil migration after pretreatment, PKC-ε knocked down [6]: did not restore LTB4 induced migration
migration induced by a combination of TNF-α pretreatment and LTB4 gradient (HMECs [8]): reduced migration
TNF-α induced neutrophil TEM (Type II migration) (HMECs [8]): attenuated Type II migration; also recorded: totally attenuated

CC(=O)c1c(O)c(C)c(O)c(Cc2c(O)c3c(c(C(=O)/C=C/c4ccccc4)c2O)OC(C)(C)C=C3)c1O [Rottlerin]
restoration of PMN TEM in response to LTB4 by PKC inhibitors (reversal of Bryostatin-1 protection) (HUVECs [7]): did not restore PMN TEM

hypocrellin A
increased permeability caused by high glucose and PMA (endothelial cells): reduced this increased permeability
